{"source": "patent US11352374B2", "about": "(University of Alaska Anchorage, priority 2015, dated 2022)", "key": {"physchem": {"assay": "physchem", "conditions": "for CO release rate relative to CORCB-1: acid forms", "protocol": "The kinetics of compound decomposition was followed by observing the ratio of the amount of free amine group to the original compound using ^1H NMR. For instance, Hexamethylenetetramine carboxyborane (CORCB-1) in D2O at the concentration of 12 mg/mL was incubated at 37° C. in the standard NMR tube. ^1H NMR spectra were obtained at different time points to study the kinetics of product formation. […] The ratio of integrated peaks were used for determining the percent of each species present and plotted as a function of time to show the kinetics of auto-decomposition.\n^1H, ^11B, and ^13C NMR spectra were recorded at different time points to study the kinetics as well as to observe transformation of CORCB-1 into the products.\nIn order to determine whether CO is produced in physiological condition, CORCB acid forms were dissolved in aqueous solution at neutral pH. The solution was then subjected to incubation at 37° C. for extended period of time. For studies using NMR, CORCBs were dissolved in D2O. The kinetics of CORCB molecules breaking down to produce CO is determined by taking ^1H NMR spectra at various time points (FIG. 3).\nCORCB sodium and ammonium salts were also tested for decomposition by using ^1H NMR spectroscopy. Samples were set up as in Example 1 and rate of decomposition measured (FIG. 4)."}, "[1]": {"assay": "CO released on auto-decomposition in water at 37° C., head space measured with CO meter", "assay_type": "physicochemical", "conditions": "for CO release rate at 24 hours, CO meter, Autodecomposition / % CO liberated at 24 hours by CO meter / CO release (in words), CO meter: 37° C., 24 hours; for Rate of % CO released by CORCBs, Autodecomposition / Rate of % CO released by CORCB sodium salts, Autodecomposition: per 24 hour", "protocol": "(§1) A test to confirm that CO is one of the decomposition products from CORCBs is done by utilizing commercially available CO meter. Four mole of the compounds at the concentrations of 6-12 mg/mL in aqueous solution was incubated at 37° C. in a sealed vessel with 50 mL gas space. CO meter was used to read the concentration of liberated CO gas from the solution. Measurement by CO meter in ppm, after converting to the micromole amount, was used for calculating the percent CO released based on the original amount of compound.\nCO liberated from the molecules and coming out to the head space are detected and quantified by using CO meter."}, "[2]": {"assay": "Decomposition (amine release) in the presence of H2O2 monitored by 1H NMR", "assay_type": "physicochemical", "conditions": "24 hours, 1.5 equivalents H2O2, 37° C.", "protocol": "(§2) The two tested are the common ROS formed naturally in the cells—a non-radical hydrogen peroxide (H2O2) and Fenton reagent which is a more reactive hydroxyl radical (.OH) formed from Fe^2+ and H2O2. Four mole of CORCB compounds were mixed in an aqueous solution with ROS and incubated in a sealed vessel. At respective times, the head space air was injected into the meter to read the amount of CO produced. For analysis by NMR spectroscopy, the reaction mixture was prepared in NMR tube in D2O solvent and incubated for the amount of time indicated.\nThe reaction with H2O2 is slow-acting, therefore, NMR spectroscopy can be used for monitoring the rate."}, "[3]": {"assay": "CO released in the presence of Fenton reagent (hydroxyl radical), CO meter", "assay_type": "physicochemical", "conditions": "per 5 minutes", "protocol": "as §1\nas §2, with “All amine carboxyboranes express a faster CO release rate when incubated with the reactive oxygen species. The” for “The”, “indicated. While some CORCBs have increased amount of CO produced when treated with 3 times equivalents of H2O2, CORCB-1 produces similar or less amount of CO. In every sample, either acid or salt form, the hydroxyl radical extracts the amount of CO to a much higher magnitude within a very short amount of time.” for “indicated.”"}, "[4]": {"assay": "CO released in the presence of H2O2, CO meter", "assay_type": "physicochemical", "conditions": "for CO released with 3 equivalents H2O2: 3 equivalents H2O2, 12 hours at 37° C. (FIG. 9); for Rate of % CO released by CORCBs, With H2O2: H2O2 equivalents not given", "protocol": "as §1, §2"}, "RAW264.7 cells": {"test_system": "RAW264.7 cells", "assay": "Cytotoxicity / cell viability, Cell Titer Blue assay", "quoted_text": "To test the anti-inflammatory effect of CORCBs, mouse macrophage cells (RAW264.7) were used. 2×10^4 cells per well was seeded in 96-well plate with different concentrations of CORCBs. Cells were incubated in DMEM with 10% FBS at 37° C. and 5% CO2 for 24 hours. LPS (100 ng/mL) was then added and incubated for 4 additional hours. The media containing secreted inflammatory cytokines were collected and these cells were subjected to cell viability test to check their viability.\nCytotoxicity of CORCBs was tested with RAW264.7 cells using Cell Titer Blue assay. In brief, cells were seeded at the density of 2×10^4 cells per well in 96-well plate with different concentrations of CORCBs. Cells were incubated in DMEM with 10% FBS at 37° C. and 5% CO2 for 24 hours. Cell Titer Blue reagent was added into the wells and incubated for 4 more hours in the normal cell growth conditions. The fluorescence signal of the converted reagent resulted from the viable cells was measured."}, "[5]": {"conditions": "24 hours, 1.5 equivalents H2O2, 37° C."}}, "note": "Where two headings read alike, the source gives them in different places.", "data": [{"smiles": "O=C(O)B[n+]1ccccc1", "values": [{"measurement": "Decomposition rate at 24 hours, 1H NMR, Autodecomposition", "setting": "physchem; 37° C.", "value": 0.40, "unit": "%"}, {"measurement": "CO release rate relative to CORCB-1", "setting": "physchem; D2O, 37° C.", "value": "much slower CO release rates than CORCB-1"}, {"measurement": "CO release rate at 24 hours, CO meter, Autodecomposition", "setting": "[1]", "value": 3, "unit": "%"}, {"measurement": "Rate of % CO released by CORCBs, Autodecomposition", "setting": "[1]", "value": "2.99 ± 0.06", "unit": "%"}, {"measurement": "Decomposition rate at 24 hours, 1H NMR, With 1.5x H2O2", "setting": "[2]", "value": 37.50, "unit": "%"}, {"measurement": "Rate of % CO released by CORCBs, With Fenton Reagent", "setting": "[3]", "value": "72.64 ± 2.57", "unit": "%"}, {"measurement": "CO released with 3 equivalents H2O2", "setting": "[4]", "value": "about 10%"}, {"measurement": "CO release rate at 24 hours, CO meter, With 1.5x H2O2", "setting": "[4]; [5]", "value": 1.00, "unit": "%"}, {"measurement": "Rate of % CO released by CORCBs, With H2O2", "setting": "[4]; per 24 hour", "value": "20.22 ± 0.35", "unit": "%"}]}, {"smiles": "CN1CCC[C@H]1c1ccc[n+](BC(=O)O)c1", "values": [{"measurement": "% decomposed at 24 hours by 1H NMR", "setting": "physchem; 37° C.", "value": 1.0, "unit": "%"}, {"measurement": "Decomposition rate at 24 hours, 1H NMR, Autodecomposition", "setting": "physchem; 37° C.", "value": 1, "unit": "%"}, {"measurement": "CO release rate relative to CORCB-1", "setting": "physchem; D2O, 37° C.", "value": "much slower CO release rates than CORCB-1"}, {"measurement": "% CO liberated at 24 hours by CO meter", "setting": "[1]", "value": 0.86, "unit": "%"}, {"measurement": "CO release (in words), CO meter", "setting": "[1]", "value": "much slower rate than the others"}, {"measurement": "CO release rate at 24 hours, CO meter, Autodecomposition", "setting": "[1]", "value": 0.86, "unit": "%"}, {"measurement": "Decomposition rate at 24 hours, 1H NMR, With 1.5x H2O2", "setting": "[2]", "value": 35.90, "unit": "%"}, {"measurement": "CO release rate at 24 hours, CO meter, With 1.5x H2O2", "setting": "[4]", "value": 0.50, "unit": "%"}]}, {"smiles": "CC(=O)Nc1ccc(OC(=O)B[N+]23CN4CN(CN(C4)C2)C3)cc1", "note": "[CORCB-1-TY, hexamethylenetetramine carboacetaminophenborane]", "values": [{"measurement": "% decomposed at 24 hours by 1H NMR", "setting": "physchem; 37° C.", "value": 11.3, "unit": "%"}, {"measurement": "Decomposition rate at 24 hours, 1H NMR, Autodecomposition", "setting": "physchem; 37° C.", "value": 11.30, "unit": "%"}, {"measurement": "time to decompose to completion", "setting": "physchem; D2O, 37° C.", "value": 12, "unit": "days"}, {"measurement": "% CO liberated at 24 hours by CO meter", "setting": "[1]", "value": 12.3, "unit": "%"}, {"measurement": "CO release rate at 24 hours, CO meter, Autodecomposition", "setting": "[1]", "value": 12.30, "unit": "%"}]}, {"smiles": "C[N+](C)(C)[BH2-]C(=O)O", "note": "[CORCB-3, trimethylamine carboxyborane]", "values": [{"measurement": "CO release rate relative to CORCB-1", "setting": "physchem; D2O, 37° C.", "value": "much slower CO release rates than CORCB-1"}, {"measurement": "rate of auto-decomposition", "setting": "physchem; as stated in Example 10", "value": "~3", "unit": "% per day"}, {"measurement": "cytotoxicity / cell growth (in words)", "setting": "RAW264.7 cells; 0.5-10 mM (up to 10 mM), 24 hours", "value": "not toxic at the levels tested"}, {"measurement": "cell viability after the TNF-α assay (in words)", "setting": "RAW264.7 cells; same cells as TNF-α assay", "value": "all cells remain viable"}, {"measurement": "CO release (in words), CO meter", "setting": "[1]", "value": "negligible"}, {"measurement": "Rate of % CO released by CORCBs, Autodecomposition", "setting": "[1]", "value": "0.13 ± 0.01", "unit": "%"}, {"measurement": "Decomposition rate at 24 hours, 1H NMR, With 1.5x H2O2", "setting": "[2]", "value": 44.50, "unit": "%"}, {"measurement": "Rate of % CO released by CORCBs, With Fenton Reagent", "setting": "[3]", "value": "76.64 ± 1.33", "unit": "%"}, {"measurement": "CO released with 3 equivalents H2O2", "setting": "[4]", "value": "about 10%"}, {"measurement": "CO release rate at 24 hours, CO meter, With 1.5x H2O2", "setting": "[4]; [5]", "value": 2.70, "unit": "%"}, {"measurement": "Rate of % CO released by CORCBs, With H2O2", "setting": "[4]; per 24 hour", "value": "18.73 ± 0.24", "unit": "%"}]}, {"smiles": "OO", "note": "[H2O2, hydrogen peroxide, reference compound]", "values": [{"measurement": "viability", "setting": "RAW264.7 cells; 1 mM, after 24 hours, untreated cells = 100%", "value": 44, "unit": "%"}]}, {"smiles": "C1N2CN3CN1CN(C2)C3", "note": "[HMTA, hexamethylenetetramine, reference compound]", "values": [{"measurement": "cytotoxicity at 2 mM (in words)", "setting": "RAW264.7 cells; 2 mM, 24 hours", "value": "most cells losing viability"}]}, {"smiles": "N.O=C(O)[BH2-][N+]12CN3CN(CN(C3)C1)C2", "note": "[NH4-CORCB-1]", "values": [{"measurement": "Decomposition rate at 24 hours, 1H NMR, Autodecomposition", "setting": "physchem; 37° C.", "value": 26.40, "unit": "%"}, {"measurement": "CO release rate at 24 hours, CO meter, Autodecomposition", "setting": "[1]", "value": 28.70, "unit": "%"}]}, {"smiles": "N.O=C(O)[BH2-][n+]1ccccc1", "note": "[NH4-CORCB-2]", "values": [{"measurement": "Decomposition rate at 24 hours, 1H NMR, Autodecomposition", "setting": "physchem; 37° C.", "value": 0.03, "unit": "%"}, {"measurement": "CO release rate at 24 hours, CO meter, Autodecomposition", "setting": "[1]", "value": "not measurable"}]}, {"smiles": "O=C([O-])[BH2-][N+]12CN3CN(CN(C3)C1)C2.[Na+]", "note": "[Na-CORCB-1]", "values": [{"measurement": "% decomposed at 24 hours by 1H NMR", "setting": "physchem; 37° C.", "value": 33.1, "unit": "%"}, {"measurement": "Decomposition rate at 24 hours, 1H NMR, Autodecomposition", "setting": "physchem; 37° C.", "value": 33.20, "unit": "%"}, {"measurement": "% CO liberated at 24 hours by CO meter", "setting": "[1]", "value": 33, "unit": "%"}, {"measurement": "CO release rate at 24 hours, CO meter, Autodecomposition", "setting": "[1]", "value": 33.10, "unit": "%"}, {"measurement": "Rate of % CO released by CORCB sodium salts, Autodecomposition", "setting": "[1]", "value": "33.12 ± 0.33", "unit": "%"}, {"measurement": "Rate of % CO released by CORCB sodium salts, With Fenton Reagent", "setting": "[3]", "value": "41.61 ± 0.57", "unit": "%"}, {"measurement": "Rate of % CO released by CORCB sodium salts, With H2O2", "setting": "[4]", "value": "11.99 ± 0.19", "unit": "%"}]}, {"smiles": "O=C([O-])[BH2-][n+]1ccccc1.[Na+]", "note": "[Na-CORCB-2]", "values": [{"measurement": "Decomposition rate at 24 hours, 1H NMR, Autodecomposition", "setting": "physchem; 37° C.", "value": 0.46, "unit": "%"}, {"measurement": "CO release rate at 24 hours, CO meter, Autodecomposition", "setting": "[1]", "value": 0.36, "unit": "%"}, {"measurement": "Rate of % CO released by CORCB sodium salts, Autodecomposition", "setting": "[1]", "value": "0.36 ± 0.13", "unit": "%"}, {"measurement": "Rate of % CO released by CORCB sodium salts, With Fenton Reagent", "setting": "[3]", "value": "43.46 ± 0.73", "unit": "%"}, {"measurement": "Rate of % CO released by CORCB sodium salts, With H2O2", "setting": "[4]; sodium salts, per 24 hour", "value": "12.66 ± 0.21", "unit": "%"}]}, {"smiles": "C[N+](C)(C)[BH2-]C(=O)O", "note": "[Na-CORCB-3]", "values": [{"measurement": "Decomposition rate at 24 hours, 1H NMR, Autodecomposition", "setting": "physchem; 37° C.", "value": "not measurable"}, {"measurement": "auto-decomposition of salts (in words)", "setting": "physchem; salts in D2O, 37° C.", "value": "insignificant amounts of decomposition"}, {"measurement": "CO release rate at 24 hours, CO meter, Autodecomposition", "setting": "[1]", "value": "not measurable"}, {"measurement": "Rate of % CO released by CORCB sodium salts, Autodecomposition", "setting": "[1]", "value": "0.14 ± 0.02", "unit": "%"}, {"measurement": "Rate of % CO released by CORCB sodium salts, With Fenton Reagent", "setting": "[3]", "value": "33.46 ± 0.90", "unit": "%"}, {"measurement": "Rate of % CO released by CORCB sodium salts, With H2O2", "setting": "[4]; sodium salts, per 24 hour", "value": "7.41 ± 0.16", "unit": "%"}]}]}
